One series deals with SU-DHL-4 cells. Nature of the series: Inhibition of cell proliferation, SU-DHL-4 cells (Cell Viability Assay, 72 h). It is filed as cell-based, human. The procedure: (§1) SU-DHL-4, Mino, and SU-DHL-6 cells, in the culture medium of RPMI1640+10% FBS, were cultured in an incubator at 37° C. under 5% CO2. Cells were plated in a 96-well plate. Specifically, SU-DHL-4 cells were at 20000/well, Mino and SU-DHL-6 cells were at 5000/well, with 90 μL/well. 10 μL of the compounds at different concentrations were added to each well. There were 3 replicate wells for each concentration, and the last column, added with DMSO, was used as a vehicle control group. The cultures were continued for 72 hours at 37° C. under 5% CO2. After 72 hours, 100 μL of detection reagent (Cell Viability Assay, Promega, G7573) was added to each well, and the cultures were uniformly mixed for 2 minutes, and incubated at room temperature for 10 minutes. The […] signal value was measured with a microplate reader (PHERAstar FSX). The IC50 value of the compound on cell proliferation inhibition was calculated using origin9.2 software, and the inhibition rate at the highest concentration of the compound (Max inhi.%) was calculated according to formula (1).
(§2) Max inhi.%=(1−T72administration/T72vehicle)×100 Formula (1).

In another series the target is T1, BTK protein (Mus musculus, UniProt P35991).
T1 construct: from tissue; host or cells: spleen of female ICR mice
T1 sequence (P35991 whole entry): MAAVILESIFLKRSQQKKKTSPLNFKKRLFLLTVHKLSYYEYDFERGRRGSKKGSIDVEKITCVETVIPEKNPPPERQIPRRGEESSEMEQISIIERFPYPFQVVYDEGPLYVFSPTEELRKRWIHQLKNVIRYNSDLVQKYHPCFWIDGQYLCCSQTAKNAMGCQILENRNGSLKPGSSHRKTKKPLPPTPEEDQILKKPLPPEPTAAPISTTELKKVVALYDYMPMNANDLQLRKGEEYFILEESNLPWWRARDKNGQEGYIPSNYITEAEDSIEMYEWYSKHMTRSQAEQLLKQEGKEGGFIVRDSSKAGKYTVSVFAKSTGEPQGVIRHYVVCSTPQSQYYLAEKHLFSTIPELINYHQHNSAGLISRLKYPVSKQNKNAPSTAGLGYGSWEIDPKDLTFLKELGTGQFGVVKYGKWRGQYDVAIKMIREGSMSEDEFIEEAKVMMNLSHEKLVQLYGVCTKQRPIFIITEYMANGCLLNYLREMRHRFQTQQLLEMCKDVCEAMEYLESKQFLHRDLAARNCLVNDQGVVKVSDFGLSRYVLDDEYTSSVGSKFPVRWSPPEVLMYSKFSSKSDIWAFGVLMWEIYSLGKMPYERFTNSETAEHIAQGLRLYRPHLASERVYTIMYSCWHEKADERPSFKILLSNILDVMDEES
Nature of the series: Detection of BTK protein degradation in spleen of mice. Conditions: po, female ICR mice, 3 consecutive days of intragastric administration, read-out: DD50 value of compounds on BTK protein degradation in spleen of mice. It is filed as in vivo. As for the experimental part: Female ICR mice, 6-8 weeks old, were purchased from BEIJING VITAL RIVER LABORATORY ANIMAL TECHNOLOGY CO., LTD, and the experiment was started after 3 days of adaptation. After 3 consecutive days of intragastric administration of different doses of the compound, the spleen of mice was taken, the spleen cells were collected, and RIPA lysis buffer (Beyotime, Cat. P0013B) was added. The cells were lysed on ice for 15 minutes, and centrifuged at 12000 rpm at 4° C. for 10 minutes. The protein sample of the supernatant was collected, and the protein was quantified by using the BCA kit (Beyotime, Cat. P0009), and then the protein was diluted to 0.25 mg/mL. The expressions of BTK (CST, Cat. 8547S) and the internal reference β-actin (CST, Cat. 3700S) were detected using a fully automated western blot quantitative analyzer (Proteinsimple). The expression level of BTK relative to the internal reference was calculated using Compass software, and the DD50 value was calculated using Origin9.2 software according to formula (4). Specifically, the BTKadministration denoted the expression level of BTK in administration groups at different doses, and the BTKvehicle denoted the expression level of BTK in the vehicle control group. BTK %=BTKadministration/BTKvehicle×100% formula (4)

For another series, the system named is Mino cells. Nature of the series: Inhibition of cell proliferation, Mino cells (Cell Viability Assay, 72 h). It is filed as cell-based, human. The note with it: Homo sapiens, MINO, 72 h. In outline: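 Cells in RPMI1640 + 10% FBS were seeded at 20000/well (SU-DHL-4) or 5000/well (Mino, SU-DHL-6) and exposed to compound for 72 h at 37 °C in triplicate, with a DMSO vehicle control. Viability was read by […]. IC50 was fitted, and Max inhi.% was taken at the highest concentration relative to vehicle.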

A short description of series [1]: Pharmacokinetic experiment in rats. It is filed as in vivo. The note with it: male, SD, rat, plasma, po, i.g. (20 mg/kg); for AUC(0-t): single dose. The procedure:
Experimental objective: In this experiment, a single dose of each test compound was administered to SD rats intravenously and intragastrically, the concentrations of the test compound in plasma of rats were measured, and the pharmacokinetic characteristics and bioavailability of the test compound in rats were evaluated.
Experimental animals: Male SD rats, about 200 g, 6-8 weeks old, 6 rats/compound. Rats were purchased from Hunan SJA Laboratory Animal Co., Ltd, with the laboratory animal production license number of SCXK (Xiang) 2019-004.
Experimental method: On the day of the experiment, 6 SD rats were randomly grouped according to their body weight. The animals were fasted with water available for 12 to 14 hours one day before the administration of a test compound, and were fed 4 hours after the administration.
Before and after the administration, […] of blood was taken from the orbit of the rats under isoflurane anesthesia, and placed in an EDTAK2 centrifuge tube. Centrifugation was carried out at 5000 rpm at 4° C. for 10 min, and the plasma was collected.
Time points for sample collection in G1&G2 groups comprise
Before analysis and detection, all samples were stored at −80° C. The samples were detected by HPLC-MS/MS.

Another series has as its system SU-DHL-6 cells. Nature of the series: Inhibition of cell proliferation, SU-DHL-6 cells (Cell Viability Assay, 72 h). It is filed as cell-based, human. As for the experimental part:
as §1, §2

The next series deals with T2, Aiolos (Homo sapiens, UniProt Q9UKT9).
T2 construct: endogenous in cells; host or cells: Mino human mantle cell lymphoma cells (ATCC)
T2 sequence (Q96SW2 whole entry partner): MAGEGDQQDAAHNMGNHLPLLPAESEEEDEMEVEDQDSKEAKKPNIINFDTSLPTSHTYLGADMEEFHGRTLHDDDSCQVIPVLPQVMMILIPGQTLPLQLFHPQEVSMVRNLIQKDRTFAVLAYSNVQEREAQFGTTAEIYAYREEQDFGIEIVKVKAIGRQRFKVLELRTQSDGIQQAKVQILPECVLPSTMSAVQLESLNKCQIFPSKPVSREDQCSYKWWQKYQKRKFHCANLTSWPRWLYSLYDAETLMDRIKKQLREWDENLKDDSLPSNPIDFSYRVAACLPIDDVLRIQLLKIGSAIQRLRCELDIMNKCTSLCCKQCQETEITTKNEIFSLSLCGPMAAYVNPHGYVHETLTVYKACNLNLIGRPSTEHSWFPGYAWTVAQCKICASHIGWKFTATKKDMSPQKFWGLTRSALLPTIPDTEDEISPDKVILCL
T2 sequence (Q16531 whole entry partner): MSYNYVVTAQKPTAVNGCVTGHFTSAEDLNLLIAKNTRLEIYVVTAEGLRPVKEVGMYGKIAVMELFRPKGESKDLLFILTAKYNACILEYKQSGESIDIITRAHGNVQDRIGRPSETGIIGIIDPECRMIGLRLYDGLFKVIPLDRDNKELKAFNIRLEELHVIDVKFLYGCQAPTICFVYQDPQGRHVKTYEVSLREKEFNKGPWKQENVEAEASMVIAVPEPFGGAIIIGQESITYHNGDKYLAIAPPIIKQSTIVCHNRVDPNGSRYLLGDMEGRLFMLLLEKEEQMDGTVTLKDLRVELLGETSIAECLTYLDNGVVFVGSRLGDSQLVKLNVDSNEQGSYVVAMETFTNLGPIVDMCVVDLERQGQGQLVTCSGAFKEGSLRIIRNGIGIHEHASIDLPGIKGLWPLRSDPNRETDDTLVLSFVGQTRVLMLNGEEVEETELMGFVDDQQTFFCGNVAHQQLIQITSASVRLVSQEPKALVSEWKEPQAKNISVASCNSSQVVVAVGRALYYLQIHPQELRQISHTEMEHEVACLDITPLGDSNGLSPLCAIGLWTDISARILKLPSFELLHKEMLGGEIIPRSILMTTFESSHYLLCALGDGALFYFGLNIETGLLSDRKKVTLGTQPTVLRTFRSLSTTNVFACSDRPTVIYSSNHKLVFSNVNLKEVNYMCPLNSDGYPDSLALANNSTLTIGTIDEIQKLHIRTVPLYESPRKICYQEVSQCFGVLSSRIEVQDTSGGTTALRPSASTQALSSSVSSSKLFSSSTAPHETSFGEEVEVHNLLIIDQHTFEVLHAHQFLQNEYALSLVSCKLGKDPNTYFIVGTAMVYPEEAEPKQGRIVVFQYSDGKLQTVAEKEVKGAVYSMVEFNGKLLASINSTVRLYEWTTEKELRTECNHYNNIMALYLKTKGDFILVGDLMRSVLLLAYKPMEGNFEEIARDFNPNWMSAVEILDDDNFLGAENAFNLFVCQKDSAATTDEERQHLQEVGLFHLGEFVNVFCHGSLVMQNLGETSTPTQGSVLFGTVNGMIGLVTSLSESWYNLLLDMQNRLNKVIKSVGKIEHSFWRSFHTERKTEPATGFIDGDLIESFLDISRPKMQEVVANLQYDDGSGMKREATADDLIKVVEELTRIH
T2 sequence (Q9UKT9 whole entry): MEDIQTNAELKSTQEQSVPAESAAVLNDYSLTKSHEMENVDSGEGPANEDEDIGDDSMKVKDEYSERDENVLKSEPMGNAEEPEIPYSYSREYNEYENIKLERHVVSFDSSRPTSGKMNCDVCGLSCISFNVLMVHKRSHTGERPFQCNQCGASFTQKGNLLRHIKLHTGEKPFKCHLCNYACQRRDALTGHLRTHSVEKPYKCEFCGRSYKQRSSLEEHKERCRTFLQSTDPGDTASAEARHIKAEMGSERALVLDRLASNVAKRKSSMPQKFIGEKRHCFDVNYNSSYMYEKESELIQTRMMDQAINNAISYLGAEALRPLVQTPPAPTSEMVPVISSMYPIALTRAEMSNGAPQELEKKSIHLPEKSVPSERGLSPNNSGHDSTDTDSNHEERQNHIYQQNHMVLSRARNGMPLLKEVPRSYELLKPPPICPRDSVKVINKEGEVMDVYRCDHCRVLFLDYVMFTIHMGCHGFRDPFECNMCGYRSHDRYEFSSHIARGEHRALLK
Nature of the series: Detection of Aiolos degradation in Mino cells (automated western blot). It is filed as cell-based. The note with it: 48 hours. The procedure:
Mino is a human mantle cell lymphoma cell line purchased from ATCC and cultured under the following conditions: RPMI-1640+15% FBS+1% double antibody in a 37° C., 5% CO2 incubator. Cells were plated in a 6-well plate, with 5×10^5 cells/well. After plating, the compounds at different concentrations were added and cultured in an incubator at 37° C. under 5% CO2 for 48 hours. After culturing, the cells were collected, and RIPA lysis buffer (Beyotime, Cat. P0013B) was added. The cells were lysed on ice for 15 minutes, and centrifuged at 12000 rpm at 4° C. for 10 minutes. The protein sample of the supernatant was collected, and the protein was quantified by using the BCA kit (Beyotime, Cat. P0009), and then the protein was diluted to 0.25 mg/mL. The expressions of Aiolos (CST, Cat. 15103S) and the internal reference GAPDH (CST, Cat. 5174S) were detected using a fully automated western blot quantitative analyzer (Proteinsimple). The expression level of Aiolos relative to the internal reference was calculated using Compass software, and the DC50 value was calculated using Origen9.2 software according to formula (5). Specifically, the Aiolosadministration denoted the expression level of Aiolos in administration groups at different doses, and the Aiolosvehicle denoted the expression level of Aiolos in the vehicle control group.
Aiolos %=Aiolosadministration/Aiolosvehicle×100% formula (5)
Background: A western blot detects proteins with antibodies after separation by electrophoresis.

The next series concerns the target T3, BTK (Homo sapiens, UniProt Q06187).
T3 construct: endogenous in cells; host or cells: Mino human mantle cell lymphoma cells (ATCC)
Nature of the series: Detection of BTK degradation in Mino cells (automated western blot). Conditions: 48 hours. It is filed as cell-based. The procedure: Mino human mantle cell lymphoma cell line was purchased from ATCC and cultured under the following conditions: RPMI-1640+15% FBS+1% double antibody in a 37° C., 5% CO2 incubator. Cells were plated in a 6-well plate, with 5×10^5 cells/well. After plating, the compounds at different concentrations were added and cultured in an incubator at 37° C. under 5% CO2 for 48 hours. After culturing, the cells were collected, and RIPA lysis buffer (Beyotime, Cat. P0013B) was added. The cells were lysed on ice for 15 minutes, and centrifuged at 12000 rpm at 4° C. for 10 minutes. The protein sample of the supernatant was collected, and the protein was quantified by using the BCA kit (Beyotime, Cat. P0009), and then the protein was diluted to 0.25 mg/mL. The expressions of BTK (CST, Cat. 8547S) and the internal reference β-actin (CST, Cat. 3700S) were detected using a fully automated western blot quantitative analyzer (Proteinsimple) with a kit (Protein simple, Cat. SM-W004). The expression level of BTK relative to the internal reference was calculated using Compass software, and the DC50 value was calculated using Origin9.2 software according to formula (3). Specifically, the BTKadministration denoted the expression level of BTK in administration groups at different doses, and the BTKvehicle denoted the expression level of BTK in the vehicle control group. […]

The target of series [2] is T4, hERG potassium ion channel (Homo sapiens, UniProt Q12809).
T4 construct: expressed in transfected cells
T4 sequence (Q12809 whole entry): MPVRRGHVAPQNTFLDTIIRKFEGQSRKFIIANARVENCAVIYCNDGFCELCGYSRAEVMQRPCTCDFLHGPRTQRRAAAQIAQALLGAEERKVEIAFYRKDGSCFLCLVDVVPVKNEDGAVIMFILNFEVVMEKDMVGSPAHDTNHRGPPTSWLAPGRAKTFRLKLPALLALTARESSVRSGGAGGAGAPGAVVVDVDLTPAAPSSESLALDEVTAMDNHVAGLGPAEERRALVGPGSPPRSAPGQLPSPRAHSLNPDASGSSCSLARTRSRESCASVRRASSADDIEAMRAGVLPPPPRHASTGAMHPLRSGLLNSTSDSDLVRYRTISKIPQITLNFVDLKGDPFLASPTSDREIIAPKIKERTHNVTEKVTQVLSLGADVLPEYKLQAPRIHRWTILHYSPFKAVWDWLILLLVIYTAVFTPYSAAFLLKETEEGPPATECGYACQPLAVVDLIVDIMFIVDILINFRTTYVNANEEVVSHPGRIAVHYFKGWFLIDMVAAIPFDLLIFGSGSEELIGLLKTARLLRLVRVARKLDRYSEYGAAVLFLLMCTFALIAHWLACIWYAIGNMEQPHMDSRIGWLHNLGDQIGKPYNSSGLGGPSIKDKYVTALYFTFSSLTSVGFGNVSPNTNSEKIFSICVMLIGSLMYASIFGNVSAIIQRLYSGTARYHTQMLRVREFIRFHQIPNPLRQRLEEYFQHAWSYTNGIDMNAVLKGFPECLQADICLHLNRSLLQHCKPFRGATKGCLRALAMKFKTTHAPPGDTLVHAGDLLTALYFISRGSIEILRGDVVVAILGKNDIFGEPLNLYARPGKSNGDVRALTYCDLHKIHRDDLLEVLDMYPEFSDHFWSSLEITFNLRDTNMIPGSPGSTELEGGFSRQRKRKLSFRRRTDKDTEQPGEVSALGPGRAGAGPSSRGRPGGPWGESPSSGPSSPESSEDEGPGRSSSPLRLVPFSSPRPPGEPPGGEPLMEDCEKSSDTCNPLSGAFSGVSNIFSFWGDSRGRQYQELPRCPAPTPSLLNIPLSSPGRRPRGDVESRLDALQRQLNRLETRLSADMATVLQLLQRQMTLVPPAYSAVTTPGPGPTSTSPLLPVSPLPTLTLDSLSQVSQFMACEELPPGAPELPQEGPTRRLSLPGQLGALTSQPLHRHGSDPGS
Nature of the series: Effect on hERG potassium ion channel, manual patch-clamp in CHO cells. It is filed as cell-based. Conditions: CHO cells stably expressing hERG, whole cell patch-clamp, room temperature; read-out: IC50 value of inhibitory effect on hERG potassium channel current. From the text: Experimental platform: electrophysiological manual patch-clamp system
Cell line: Chinese hamster ovary (CHO) cells stably expressing hERG potassium ion channel
Experimental method: In CHO (Chinese Hamster Ovary) cells stably expressing hERG potassium channel, whole cell patch-clamp technique was used to recorded hERG potassium channel current at room temperature. The glass microelectrode is made of a glass electrode blank (BF150-86-10, Sutter) by a puller. The tip resistance after filling the liquid in the electrode is about 2-5 MQ. The glass microelectrode can be connected to the patch-clamp amplifier by inserting the glass microelectrode into an amplifier probe. The clamping voltage and data recording are controlled and recorded by the pClamp 10 software through a computer. The sampling frequency is 10 kHz, and the filtering frequency is 2 kHz. […]
Data analysis processing was carried out by using pClamp 10, GraphPad Prism 5 and Excel software. The inhibition degree of hERG potassium current (peak value of hERG tail current induced at −50 mV) at different compound concentrations was calculated by the following formula: […]
Compound IC50 was calculated using GraphPad Prism 5 software by fitting according to the following equation: […]
In general terms: Block of hERG is tested as a sign of cardiac risk.

Like-named read-outs stand apart in the source and are kept apart here.

T3 sequence (Q06187 whole entry): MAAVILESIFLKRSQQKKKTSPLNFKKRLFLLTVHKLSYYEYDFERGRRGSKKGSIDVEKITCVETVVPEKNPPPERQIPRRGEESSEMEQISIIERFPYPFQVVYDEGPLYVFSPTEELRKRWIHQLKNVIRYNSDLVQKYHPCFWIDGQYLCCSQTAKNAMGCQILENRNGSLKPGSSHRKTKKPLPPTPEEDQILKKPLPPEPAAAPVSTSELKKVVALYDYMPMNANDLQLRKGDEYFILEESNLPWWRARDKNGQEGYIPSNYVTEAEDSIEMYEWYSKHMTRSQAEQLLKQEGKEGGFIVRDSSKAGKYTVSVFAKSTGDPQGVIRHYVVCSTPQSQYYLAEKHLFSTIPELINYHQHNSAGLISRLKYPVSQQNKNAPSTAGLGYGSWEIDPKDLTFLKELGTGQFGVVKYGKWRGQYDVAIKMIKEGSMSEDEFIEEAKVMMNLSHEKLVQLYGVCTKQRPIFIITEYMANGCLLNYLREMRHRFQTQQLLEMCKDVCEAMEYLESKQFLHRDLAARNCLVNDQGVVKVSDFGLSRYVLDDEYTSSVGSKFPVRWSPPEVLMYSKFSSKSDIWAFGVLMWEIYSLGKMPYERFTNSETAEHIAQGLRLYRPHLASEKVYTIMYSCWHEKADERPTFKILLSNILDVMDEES

As for `Nc1ncnc2c1c(-c1ccc(Oc3ccccc3)cc1)nn2C1CCN(C2CN(CC3CN(c4ccc5c(c4)C(=O)N(C4CCC(=O)NC4=O)C5=O)C3)C2)CC1` (centres unmarked) [Compound 85, 5-(3-((3-(4-(4-amino-3-(4-phenoxyphenyl)-1H-pyrazolo[3,4-d]pyrimidin-1-yl)piperidin-1-yl)azetidin-1-yl)methyl)azetidin-1-yl)-2-(2,6-dioxopiperidin-3-yl)isoindoline-1,3-dione], the IC50 was 624 nM in the series on SU-DHL-4 cells, 10 to 1000 nM in the series on SU-DHL-4 cells (listed as compound 85), 32 nM with Mino cells and 26 nM with SU-DHL-6 cells. Further, the ED50 on BTK protein was determined as 3.3 mg/kg. For the same compound, in series [1] (bioavailability), the bioavailability was determined as 17.4 ± 5.6%. The AUC(0-t) in series [1] worked out at 3030 ± 982 ng·h/mL. Further, the figures for the DC50 on Aiolos and at BTK were no less than 1000 nM and 1.6 nM, respectively.
As for `Nc1ncnc2c1c(-c1ccc(Oc3ccccc3)cc1)nn2[C@H]1CCN(C2CN(CC3(F)CN(c4cc5c(cc4F)C(=O)N(C4CCC(=O)NC4=O)C5=O)C3)C2)C[C@H]1F` (stereo partly drawn) [Compound 113, 5-(3-((3-((3R,4S)-4-(4-amino-3-(4-phenoxyphenyl)-1H-pyrazolo[3,4-d]pyrimidin-1-yl)-3-fluoropiperidin-1-yl)azetidin-1-yl)methyl)-3-fluoroazetidin-1-yl)-2-(2,6-dioxopiperidin-3-yl)-6-fluoroisoindoline-1,3-dione], the IC50 is 61 nM with Mino cells; 100 nM in the series on SU-DHL-6 cells (Homo sapiens, SU-DHL-6, 72 h); greater than 40000 nM in series [2]. The compound further showed an AUC(0-t) in series [1] of 3820 ± 811 ng·h/mL.
As for `Nc1ncnc2c1c(-c1ccc(Oc3ccccc3)cc1)nn2C1CCN(C2CN(CC3(F)CN(c4cc5c(cc4F)C(=O)N(C4CCC(=O)NC4=O)C5=O)C3)C2)CC1` (centres unmarked) [Compound 115, 5-(3-((3-(4-(4-amino-3-(4-phenoxyphenyl)-1H-pyrazolo[3,4-d]pyrimidin-1-yl)piperidin-1-yl)azetidin-1-yl)methyl)-3-fluoroazetidin-1-yl)-2-(2,6-dioxopiperidin-3-yl)-6-fluoroisoindoline-1,3-dione], the IC50 is 166 nM with Mino cells; 133 nM in the series with SU-DHL-6 cells (Homo sapiens, SU-DHL-6, 72 h); greater than 40000 nM in series [2]. For the same compound, the AUC(0-t) in series [1] worked out at 5820 ± 2260 ng·h/mL.

By IC50 is commonly meant the midpoint of a concentration-inhibition curve. As a reminder, the bioavailability is dose-corrected exposure relative to a reference, in per cent. Read a low bioavailability as little systemic uptake. Usually AUC(0-t) stands for exposure summed from dosing to a finite time, without extrapolation to infinity. A high value points to high exposure. Broadly, the DC50 is the concentration at which degradation of the target reaches its halfway point. Read a high DC50 as degradation only at high concentration.

(Values after patent publication US20230248833A1, “COMPOUND HAVING BTK KINASE DEGRADING ACTIVITY, AND PREPARATION METHOD AND PHARMACEUTICAL USE THEREFOR” (SICHUAN HAISCO PHARMACEUTICAL CO., LTD., priority 2020, published 2023).)
